Source: US11873298B2, “Compounds and uses thereof” (JANSSEN PHARMACEUTICA NV, priority 2017, dated 2024)

Experiments:
[1] = target: T1, SCD1 (Homo sapiens, UniProt O00767); experiment: Growth inhibition of humanized yeast strain expressing SCD1 as sole desaturase; assay type: cell-based
T1 construct: host or cells: S. cerevisiae ole1Δ strain (W303 pdr1Δ pdr3Δ background), plasmid pRS316 with TDH3 promoter and CYC1 terminator
T1 sequence (O00767 1-359): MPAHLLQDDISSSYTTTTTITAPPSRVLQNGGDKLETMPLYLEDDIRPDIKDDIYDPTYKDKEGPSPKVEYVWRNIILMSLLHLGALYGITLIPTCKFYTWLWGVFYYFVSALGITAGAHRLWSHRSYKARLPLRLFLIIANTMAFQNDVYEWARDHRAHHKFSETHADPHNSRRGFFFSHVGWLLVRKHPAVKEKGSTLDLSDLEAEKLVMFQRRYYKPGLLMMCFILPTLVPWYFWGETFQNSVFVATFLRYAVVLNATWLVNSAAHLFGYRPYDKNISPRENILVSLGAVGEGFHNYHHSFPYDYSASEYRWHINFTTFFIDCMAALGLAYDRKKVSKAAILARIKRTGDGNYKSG
Procedure, shortened: (§1)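 Plasmid-complemented ole1Δ yeast, drug-pump deleted (pdr1Δ pdr3Δ), depend solely on the introduced Ole1, SCD1 or SCD5 desaturase. Compounds are added from DMSO to cells in uracil-free galactose medium, 2× density 0.02, and OD600 is read after 24 h or 40 h respectively.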

[2] = target: T2, SCD5 (Homo sapiens, UniProt Q86SK9); experiment: Growth inhibition of humanized yeast strain expressing SCD5 as sole desaturase; assay type: cell-based
T2 construct: host or cells: S. cerevisiae ole1Δ strain (W303 pdr1Δ pdr3Δ background), plasmid pRS316 with TDH3 promoter and CYC1 terminator
T2 sequence (Q86SK9 1-330): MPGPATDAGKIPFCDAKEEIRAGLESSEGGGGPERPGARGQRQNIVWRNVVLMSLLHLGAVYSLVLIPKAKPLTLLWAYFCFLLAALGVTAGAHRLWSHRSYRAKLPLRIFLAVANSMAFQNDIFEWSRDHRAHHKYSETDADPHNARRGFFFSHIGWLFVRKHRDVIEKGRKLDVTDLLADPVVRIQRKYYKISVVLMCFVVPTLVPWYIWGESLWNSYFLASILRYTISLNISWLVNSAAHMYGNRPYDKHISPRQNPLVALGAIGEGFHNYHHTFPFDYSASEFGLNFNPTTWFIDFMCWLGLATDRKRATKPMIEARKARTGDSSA
Procedure, shortened: as §1

[3] = humanized yeast strain expressing SCD1
[4] = humanized yeast strain expressing SCD5
[5] = growth inhibition of humanized yeast strain expressing human SCD1
[6] = growth inhibition of humanized yeast strain expressing human SCD5

| SMILES | IC50 ([1]; humanized yeast strain, 40 h) | IC50 ([2]; humanized yeast strain, 40 h) | also measured |
| --- | --- | --- | --- |
| CC(C)(C)OC(=O)N1CCC(c2nc(-c3ccc4cnn(C5CC5)c4c3)no2)CC1 [Compound 360] |  |  | SCD1 % Max Inhibition [1, 3]: 64.03%; IC50 [2, 4]: > 45 µM; SCD5 % Max Inhibition [2, 4]: 2.38% |
| COC(=O)N1CCC(c2noc(-c3ccc4cnn([C@H]5CCOC5)c4c3)n2)CC1 [Compound 878] | > 45 µM | 0.005 µM |  |
| C[C@H]1C[C@H](c2noc(-c3ccc4cnn(C5COC5)c4c3)n2)CCN1C(=O)OC(C)(C)C [Compound 1018] | 20.3 µM | 0.01 µM |  |
| COC(=O)N1CCN(c2noc(-c3ccc4cnn(C5COC5)c4c3)n2)CC1 [Compound 713] |  |  | IC50 [1, 5]: 5.58 µM; IC50 [2, 6]: 0.01 µM |
| CC1(OC(=O)N2CCC(c3noc(-c4ccc5cnn(C6CS(=O)(=O)C6)c5c4)n3)CC2)CC1 [Compound 1060] | > 45 µM | 0.184 µM |  |
| COC1(C(=O)N2CCC(C)(c3nc(-c4ccc5cnn(C(C)C)c5c4)no3)CC2)CC1 [Compound 748] | > 45 µM | 2.14 µM |  |
| CC(C)(C)OC(=O)N1CCC(c2noc(-c3ccc(N4CCOCC4)cc3)n2)CC1 [Compound 1150] | > 45 µM | > 45 µM |  |
| CC(C)n1ncc2ccc(-c3noc(C4CCN(C(=O)C5CC(=O)N(C)C5(C)C)CC4)n3)cc21 (stereo not shown) [Compound 616] |  |  | IC50 [1, 5]: > 45 µM; IC50 [2, 6]: > 45 µM |
| O=C(CC1CC1)N1CCC(c2noc(-c3ccc4cnn(C5CCOC5)c4c3)n2)CC1 (stereo not shown) [Compound 974] | > 45 µM | 0.01 µM |  |
| Cc1nn(C)c2cc(-c3noc(C4CCN(C(=O)CN)CC4(F)F)n3)ccc12 (stereo not shown) [Compound 512] |  |  | IC50 [1, 3]: > 45 µM; IC50 [2, 4]: > 45 µM |
| COC(=O)N1CCC(F)(c2noc(-c3ccc4cnn(C5COC5)c4c3)n2)CC1 [Compound 892] | > 45 µM | 0.01 µM |  |
| CC(C)(C)OC(=O)N1CCC(c2nc(-c3ccc4cnn(C5(C)COC5)c4c3)no2)CC1 [Compound 753] | > 45 µM | 0.585 µM |  |
| CC1(OC(=O)N2CCN(c3noc(-c4ccc5cnn(C6COC6)c5c4)n3)CC2)CC1 [Compound 735] |  |  | IC50 [1, 5]: 3.99 µM; IC50 [2, 6]: 0.01 µM |
| COC(=O)N1CCC(c2nnc(-c3ccc4cnn(C(C)C)c4c3)o2)CC1 [Compound 852] | > 45 µM | 5.36 µM |  |
| CC1(OC(=O)N2CCC(c3noc(N4CCc5c(cnn5C5COC5)C4)n3)CC2)CC1 [Compound 1193] | > 45 µM | > 45 µM |  |
| CC(C)c1ncn2ccc(-c3nc(C4CCN(C(=O)OC(C)(C)C)CC4)no3)cc12 [Compound 1040] | > 45 µM | 0.791 µM |  |
| CC(C)C(=O)N1CCC(c2noc(-c3ccnc(Cl)c3)n2)CC1 [Compound 1129] | > 45 µM | > 45 µM |  |
| C[C@H]1C[C@H](c2noc(-c3ccc4cnn(C5COC5)c4c3)n2)CCN1C(=O)C1(F)CC1 [Compound 1053] | > 45 µM | 0.00118 µM |  |
| CC(C)(C)OC(=O)N1CCN(c2noc(-c3ccc4cnn(C5COC5)c4c3)n2)CC(F)(F)C1 [Compound 1012] | 15 µM | 0.01 µM |  |
| CC(C)(C)OC(=O)N1CCC(c2noc(-c3cc(F)cc(N4CCOCC4)c3)n2)CC1 [Compound 1086] | > 45 µM | 0.019 µM |  |
| COC(=O)N1CCC(c2nc(-c3cccc(C4CCOC4)c3)no2)CC1 (stereo not shown) [Compound 819] | > 45 µM | 3.72 µM |  |
| CC(C)(C)OC(=O)N1CCC(c2noc(-c3cc(Br)c4cnn(C5COC5)c4c3)n2)CC1 [Compound 1041] | > 45 µM | 0.01 µM |  |
| CC(C)n1ncc2ccc(-c3noc(N4C[C@@H]5CN(C(=O)OC(C)(C)C)C[C@H]5C4)n3)cc21 [Compound 667] |  |  | IC50 [1, 5]: > 45 µM; IC50 [2, 6]: 0.87 µM |
| CC1(OC(=O)N2CCC(c3nc(-c4ccc5cnn(C6(C)COC6)c5c4)no3)CC2)CC1 [Compound 816] | > 45 µM | 7.19 µM |  |

| SMILES | IC50 ([1]; humanized yeast strain, 40 h) | IC50 ([2]; humanized yeast strain, 40 h) | also measured |
| --- | --- | --- | --- |
| O=C(N1CCC(c2noc(-c3ccc4cnn([C@@H]5CCOC5)c4c3)n2)CC1)C1(F)CC1 [Compound 1096] | > 45 µM | 0.00101 µM |  |
| COC(=O)N1CCC(c2nc(-c3ccnc(Cl)c3)no2)CC1 [Compound 734] |  |  | IC50 [1, 5]: > 45 µM; IC50 [2, 6]: > 45 µM |
| COC(=O)N1CCN(c2nc(-c3ccc4cnn(C5CNC5)c4c3)no2)CC1 [Compound 913] | > 45 µM | 13.8 µM |  |
| CC(C)(C)OC(=O)N1CCN(c2nc(-c3ccc4cnn(C5CCOC5)c4c3)no2)CC1 (stereo not shown) [Compound 784] | 0.95 µM | 0.01 µM |  |
| c1cc2cnn(C3COC3)c2cc1-c1nc(N2CCNCC2)no1 [Compound 751] | > 45 µM | > 45 µM |  |
| O=C(c1sccc1Cl)N1CCC(c2nc(-c3ccc4cnn(C5COC5)c4c3)no2)CC1 [Compound 718] |  |  | IC50 [1, 5]: > 45 µM; IC50 [2, 6]: 0.635 µM |
| COC1(C(=O)N2CCC(c3noc(-c4ccc5cnn(C6COC6)c5c4)n3)CC2)CC1 [Compound 902] | > 45 µM | 0.01 µM |  |
| O=C(OC1CC1)N1CCN(c2noc(-c3ccc4cnn(C5COC5)c4c3)n2)CC(F)(F)C1 [Compound 1083] | > 45 µM | 0.033 µM |  |
| CC(C)(C)OC(=O)N1CC=C(c2nc(-c3ccc4cnn(C5COC5)c4c3)ns2)CC1 [Compound 633] |  |  | IC50 [1, 5]: > 45 µM; IC50 [2, 6]: 0.214 µM |
| O=C(N1CCC(c2noc(-c3cccc(N4CCOCC4)c3)n2)CC1)C1(F)CC1 [Compound 1080] | > 45 µM | 0.501 µM |  |
| CC(C)n1ncc2ccc(-c3nc(N4CCn5c(Cl)cnc5C4)no3)cc21 [Compound 828] | > 45 µM | 0.067 µM |  |
| CC1(C)CC1C(=O)N1CCC(c2noc(-c3ccc4cnn(C5COC5)c4c3)n2)CC1 (stereo not shown) [Compound 848] | > 45 µM | 0.01 µM |  |
| CC(C)(C)OC(=O)N1CCC(c2noc(-c3cncc(N4CCC(F)(F)C4)c3)n2)CC1 [Compound 1181] | > 45 µM | 0.47 µM |  |
| Cc1nn(C)c2cc(-c3noc(C4CCN(C(=O)CNC(=O)c5cccc(F)c5)CC4(F)F)n3)ccc12 (stereo not shown) [Compound 602] |  |  | IC50 [1, 3]: 15.9 µM; IC50 [2, 4]: 2.74 µM |
| CNC(=O)OC1CCC(c2nc(-c3ccc4cnn(C(C)C)c4c3)no2)CC1 (stereo not shown) [Compound 608] |  |  | IC50 [1, 5]: > 45 µM; IC50 [2, 6]: > 45 µM |
| CC(C)n1ncc2ccc(-c3noc(C4CCN(C(=O)CNC(=O)c5ccccc5)CC4(F)F)n3)cc21 (stereo not shown) [Compound 679] |  |  | IC50 [1, 5]: > 45 µM; IC50 [2, 6]: > 45 µM |
| COC(=O)N1CCN(c2noc(-c3ccc4cnn(C5CNC5)c4c3)n2)CC1 [Compound 946] | > 45 µM | 4.11 µM |  |
| O=C(c1ccccc1)N1CCC(c2noc(-c3ccc4cnn(C5COC5)c4c3)n2)CC1 [Compound 685] |  |  | IC50 [1, 5]: > 45 µM; IC50 [2, 6]: 0.184 µM |
| CC(C)(C)OC(=O)N1CCN(c2nc(-c3ccc4cnn(C5CCC5)c4c3)no2)CC1 [Compound 721] |  |  | IC50 [1, 5]: > 45 µM; IC50 [2, 6]: 1.65 µM |
| CC(C)(C)OC(=O)N1CCC(c2nc(-c3ccc4cnn(C(C)(C)CO)c4c3)no2)CC1 [Compound 736] |  |  | IC50 [1, 5]: 32.6 µM; IC50 [2, 6]: 0.26 µM |
| COC(=O)N1CCC(c2nc(-c3ccc4cnn(C5COC5)c4c3)no2)CC1 [Compound 635] |  |  | IC50 [1, 5]: > 45 µM; IC50 [2, 6]: 0.397 µM |
| CC(C)n1ncc2cnc(-c3cc(C4CCN(C(=O)OC(C)(C)C)CC4)on3)cc21 [Compound 885] | 25.4 µM | 0.01 µM |  |
| COC(=O)N1CCC(c2noc(-c3ccnc(C4CCOC4)c3)n2)CC1 (stereo not shown) [Compound 1015] | > 45 µM | 0.429 µM |  |
| O=C(N1CCC(c2noc(-c3ccnc(C4CCOC4)c3)n2)CC1)C1(F)CCC1 (stereo not shown) [Compound 1097] | > 45 µM | 0.02 µM |  |
